Source: PMC9323733, “Efficacy of Vafidemstat in Experimental Autoimmune Encephalomyelitis Highlights the KDM1A/RCOR1/HDAC Epigenetic Axis in Multiple Sclerosis” (Pharmaceutics, 2022)

Experiments:
brain of EAE mice = experiment: Microarray, brain of EAE mice, effector phase (E), 24 h after treatment; ORY-2001 0.5 mg/kg, FTY720 1.0 mg/kg; format: in vivo, mouse
Procedure: (§1) We evaluated differences in gene expression induced by the treatment using real-time PCR and by microarray hybridization analysis. First, total RNA was isolated from brain and spinal cord segments from EAE mice using Qiazol™ and the RNeasy MiniKit™ extraction kit (Qiagen). Evaluation of RNA quality was performed with the Agilent 2100 bioanalyzer and NanoDrop™ ND-1000 (Thermo Scientific, Dartford, Kent, UK). After DNAse I treatment, RNA (1 µg/sample) was reverse transcribed using RevertAid First strand cDNA Synthesis kit (Fermentas) and random hexamer primers. For evaluating the expression of the inflammatory markers TNFα, IL-1β, IP10, IL-4, and CCL5, real time PCR was performed by using iQ SYBR Green Supermix (Bio-Rad, Feldkirchen, Germany) according to manufacturer’s instructions in a BIORAD CFX96 thermal cycler. Primer sequences and PCR conditions are indicated in Supplementary Materials Table S3. […]
(§2) For the gene expression studies, data from microarray assays were normalized by modified nonlinear Q-splines normalization method and Log2(Sample/Vehicle) values calculated without background correction (which permits robust selection of differentially expressed genes yet may lead to sub-estimation of the magnitude of change for genes expressed near the detection limit). Differential expression was assessed with the proprietary Polyphemus software using robust statistics on the average technical replicates (3 replicates/gene oligo datapoint) after removing eventual outlier points (caused by dust or array imperfections). […] The p values were calculated after outlier elimination based on the absolute value of the regularized t-statistics, which uses a Bayesian framework to derive the algorithm, using internal replicated controls to assess the minimum technical variability of the process. Correlation between gene expression changes induced by different treatments was analysed by calculating the Pearson correlation coefficient r using the Log2(Treatment/Veh) values for all genes expressed above background level (n). […]

spinal cord of EAE mice = experiment: Microarray, spinal cord of EAE mice, effector phase (E), 24 h after treatment; ORY-2001 0.5 mg/kg, FTY720 1.0 mg/kg; format: in vivo, mouse
Procedure: as §1, with “S3. Microarray studies were performed by using DNA microarray oligo probes designed with Tethys, Oryzon’s proprietary software which is based on the in silico thermodynamic simulation of hybridization. Agilent probes were added for genes which yielded no probes, complying with Tethys criteria. Control probes were used to assess detection limits and range, to verify spatial homogeneity, and to determine experimental within-array variation. Microarray slides were synthesized by Agilent. Total RNA (0.5 µg) amplification and labeling with Cy3 or Cy5 was carried out using a modified Eberwine mRNA amplification procedure employing the MessageAmp™ II aRNA Amplification kit from Ambion (ThermoFisher Scientific, Oxford, UK).” for “S3.”
as §2

spleen cells of EAE mice = experiment: EAE, autoreactive response of spleen cells from treated mice (proliferation, cytokines/chemokines); format: in vivo, mouse; conditions: ORY-2001 0.5 mg/kg; for IFNγ and IL-4 in Con A-stimulated spleen cells: FTY720 1.0 mg/kg
Procedure: Spleen and draining lymph node (DLN) cells (10^6/mL) collected from EAE mice were stimulated in complete medium (RPMI 1640 containing 10% FBS, 50 µM 2-ME, 2 mM L-glutamine, 100 U/mL penicillin, and 100 µg/mL streptomycin) with 15 µM MOG35–55. After 48 h, cytokine (IL-4, TNF-alpha, IFN-gamma) and chemokine (IP-10 and MCP1) contents in culture supernatants were determined by sandwich ELISAs using capture/biotinylated detection Abs according to the manufacturer’s recommendations. The antibodies used are indicated in Supplementary Materials Table S4. Cell proliferation was evaluated after 72 h by adding 2.5 µCi/mL tritiated-thymidine during the last 8 h of culture and determining cpm incorporation in a Microbeta counter. We used T cell activation with an anti-CD3 […] antibody (1 µg/mL) or ConA (2.5 µg/mL) as controls of unspecific polyclonal stimulation.

lymphocytes [1] = experiment: GLP toxicological studies, lymphocyte count, rats; format: in vivo, Wistar rats; conditions: mean ± SD
Excerpt: (§3) T r eat m e nt N Ly m p h o c y te s Equivalent m ou se d o se
(§4) ( mg /k g p. o. ga va g e) (109/ L ) ( mg /k g p.o ga va ge)
(§5) 6 m ont h s W i sta r r at s
(§6) 9 m ont h s Be ag le d og s
(§7) Eff ec t of t r ea t me nt wi t h O RY-2 00 1 a d mi ni st e r e d by or al ga va ge o n l y m ph oc yt e s ob se r ve d i n G LP
(§8) t ox i c ol ogi c a l st udi e s i n r at a nd do g. A ni ma l s we r e t re a t e d or al l y (fi ve c o ns e c ut i ve da ys/ we e k) by ga va ge
(§9) 28 da ys or 6 mo nt hs ( ra t s) a nd 28 da ys or 9 mo nt hs (dogs). Data re prese nt de me a n ± S D. T he e q ui va l e n t
(§10) dos e i n m o use i s i n di c at e d. 1-wa y A N OV A a n d D u n ne t t’ s M ul ti pl e C o m pa ri so n t e st wa s use d.

lymphocytes [2] = experiment: GLP toxicological studies, lymphocyte count, dogs; format: in vivo, Beagle dogs; conditions: mean ± SD
Excerpt: as §3, §4, §5, §6, §7, §8, §9, §10

[3] = system: spinal cord and brain of EAE mice; experiment: qRT-PCR validation of microarray biomarkers, spinal cord and brain of EAE mice; format: in vivo, mouse
Procedure: as §1, §2

CCCCCCCCc1ccc(CCC(N)(CO)CO)cc1 [FTY720, Fingolimod, reference compound]
expression of Cox1 (brain of EAE mice): induction of Cox1
expression of pituitary markers Gh, Prl, Pomc, Cga (brain of EAE mice): potently downregulated the pituitary markers Gh, Prl, Pomc, and Cga
expression of Ogn (spinal cord of EAE mice): downregulated by FTY720
IFNγ and IL-4 in Con A-stimulated spleen cells (spleen cells of EAE mice; day 17): reduced the levels of IFNγ and increased IL-4 release

Nc1nnc(CN[C@@H]2C[C@H]2c2ccc(OCc3ccccc3)cc2)o1 [ORY-2001]
expression of pituitary markers Gh, Prl, Pomc, Cga (brain of EAE mice): potently downregulated the pituitary markers Gh, Prl, Pomc, and Cga
Lymphocytes (lymphocytes [1]; 6 months Wistar rats, 0.07 mg/kg p.o. gavage (equivalent mouse dose 0.14)): 3.25 ± 0.75 109/L
Lymphocytes (lymphocytes [1]; 6 months Wistar rats, 0.20 mg/kg p.o. gavage (equivalent mouse dose 0.40)): 4.02 ± 0.99 109/L
Lymphocytes (lymphocytes [1]; 6 months Wistar rats, 0.40 mg/kg p.o. gavage (equivalent mouse dose 0.80)): 3.72 ± 1.12 109/L
Lymphocytes (lymphocytes [1]; 28 d Wistar rats, 0.07 mg/kg p.o. gavage (equivalent mouse dose 0.14)): 3.65 ± 1.39 109/L
Lymphocytes (lymphocytes [1]; 28 d Wistar rats, 0.20 mg/kg p.o. gavage (equivalent mouse dose 0.40)): 3.44 ± 0.62 109/L
Lymphocytes (lymphocytes [1]; 28 d Wistar rats, 0.60 mg/kg p.o. gavage (equivalent mouse dose 1.20)): 3.89 ± 1.14 109/L
Lymphocytes (lymphocytes [2]; 9 months Beagle dogs, 0.025 mg/kg p.o. gavage (equivalent mouse dose 0.15)): 2.10 ± 0.60 109/L
Lymphocytes (lymphocytes [2]; 9 months Beagle dogs, 0.075 mg/kg p.o. gavage (equivalent mouse dose 0.45)): 2.90 ± 0.30 109/L
Lymphocytes (lymphocytes [2]; 9 months Beagle dogs, 0.150 mg/kg p.o. gavage (equivalent mouse dose 0.90)): 2.75 ± 1.04 109/L
Lymphocytes (lymphocytes [2]; 28 d Beagle dogs, 0.025 mg/kg p.o. gavage (equivalent mouse dose 0.15)): 3.31 ± 0.41 109/L
Lymphocytes (lymphocytes [2]; 28 d Beagle dogs, 0.075 mg/kg p.o. gavage (equivalent mouse dose 0.45)): 2.88 ± 1.02 109/L
Lymphocytes (lymphocytes [2]; 28 d Beagle dogs, 0.225 mg/kg p.o. gavage (equivalent mouse dose 1.35)): 4.33 ± 1.08 109/L
Ttr upregulation in spinal cord, check by qRT-PCR ([3]; increased pooled value came from a single outlier sample): discarded as a biomarker
expression of Saa3, Aif1 and Gbp2 (qRT-PCR) ([3]; spinal cord and brain, effector phase): downregulated the inflammatory biomarkers Saa3, Aif1 and Gbp2
expression of Ccl5, Ip10 and Tnf-alpha (qRT-PCR) ([3]; spinal cord and brain, sub-chronic period): downregulated
expression of Aif1, Bst2, Rgs4 and Mtap9 (spinal cord of EAE mice): downregulated Aif1
expression of Ogn (spinal cord of EAE mice): preserved the expression of Ogn
expression of Ptpn11, Kif1b and Pik3r1 (spinal cord of EAE mice): prevented the induction of Ptpn11
IP-10 and MCP-1 production induced by MOG35–55 (spleen cells of EAE mice; day 17): significant increase in the production of the pro-inflammatory chemokines IP-10 and MCP-1
MOG35–55-induced proliferation of spleen cells (spleen cells of EAE mice; day 17): significantly reduced the MOG35–55-induced proliferation of spleen cells
IFNγ and IL-4 in Con A-stimulated spleen cells (spleen cells of EAE mice; day 17): neither affected such cytokines (at the time of study) nor TNF-alpha
TNF-alpha and MCP-1 levels, MOG35–55-specific recall response (spleen cells of EAE mice; day 26): significantly reduced the levels of TNF-alpha and MCP-1
IFNγ, IL-17 and IP-10 levels, MOG35–55-specific recall response (spleen cells of EAE mice; day 26, ORY-LSD1 180 µg/kg): produced equivalent levels of IFNγ, IL-17, and IP-10
IL-4 production by spleen cells (spleen cells of EAE mice; day 26, ORY-LSD1 180 µg/kg): increased with both treatments
MOG35–55- and anti-CD3-stimulated proliferation of spleen lymphocytes (spleen cells of EAE mice; day 26, ORY-LSD1 180 µg/kg): reduced MOG35–55 but not anti-CD3 -stimulated proliferation
